According to US20260224584A1 (priority 2023, published 2026):
Counter-ions that a name gives are not always drawn.

Test system: Human WB (90%) CD69
Test: Human WB (90%) CD69
Format: cell-based
Conditions: read-out: Human WB (90%) CD69 IC50 (nM); human whole blood (90%), CD69 readout

Compound	IC50 [nM]
Cc1cc(C)nc(Nc2cc(-c3ccc(N4CCN(C(C)C)CC4)cc3)cc3c2nc(-c2cc[nH]n2)n3C)c1 [Example 53, N-(4,6-dimethylpyridin-2-yl)-6-(4-(4-isopropylpiperazin-1-yl)phenyl)-1-methyl-2-(1H-pyrazol-3-yl)-1H-benzo[d]imidazol-4-amine, TFA]	75
CC(C)N1CCN(c2ccc(-c3cc(NC4CCN(S(C)(=O)=O)CC4)c4nc(N(C)C)n(C)c4c3)cc2)CC1 [Example 54, 6-(4-(4-isopropylpiperazin-1-yl)phenyl)-N2,N2,1-trimethyl-N4-(1-(methylsulfonyl)piperidin-4-yl)-1H-benzo[d]imidazole-2,4-diamine]	673
CC(C)N1CCN(c2ccc(-c3cc(NCc4cccc(S(C)(=O)=O)c4)c4nc(-c5ccc(S(C)(=O)=O)cc5)n(C)c4c3)cc2)CC1 [Example 55, 6-(4-(4-isopropylpiperazin-1-yl)phenyl)-1-methyl-N-(3-(methylsulfonyl)benzyl)-2-(4-(methylsulfonyl)phenyl)-1H-benzo[d]imidazol-4-amine]	1130
CC(C)N1CCN(c2ccc(-c3cc(NCc4ccc(S(C)(=O)=O)cc4)c4nc(-c5ccc(S(C)(=O)=O)cc5)n(C)c4c3)cc2)CC1 [Example 56, 6-(4-(4-isopropylpiperazin-1-yl)phenyl)-1-methyl-N-(4-(methylsulfonyl)benzyl)-2-(4-(methylsulfonyl)phenyl)-1H-benzo[d]imidazol-4-amine, TFA]	1640
Cc1nc2c(NC3CCN(C4COC4)CC3)cc(-c3ccc(N4CCN(C(C)C)CC4)cc3)cc2n1C [Example 57, 6-(4-(4-isopropylpiperazin-1-yl)phenyl)-1,2-dimethyl-N-(1-(oxetan-3-yl)piperidin-4-yl)-1H-benzo[d]imidazol-4-amine]	188
Cc1nc2c(N3CCN(C4COC4)CC3)cc(-c3ccc(N4CCN(C(C)C)CC4)cc3)cc2n1C [Example 58, 6-(4-(4-isopropylpiperazin-1-yl)phenyl)-1,2-dimethyl-4-(4-(oxetan-3-yl)piperazin-1-yl)-1H-benzo[d]imidazole]	860
COc1ccc(-c2nc3c(N4CCN(C5COC5)CC4)cc(-c4ccc(N5CCN(C(C)C)CC5)cc4)cc3n2C)cc1OC [Example 59, 2-(3,4-dimethoxyphenyl)-6-(4-(4-isopropylpiperazin-1-yl)phenyl)-1-methyl-4-(4-(oxetan-3-yl)piperazin-1-yl)-1H-benzo[d]imidazole]	651
Cc1nc2c(N3CCC(CNC4COC4)CC3)cc(-c3ccc(N4CCN(C(C)C)CC4)cc3)cc2n1C [Example 60, N-((1-(6-(4-(4-isopropylpiperazin-1-yl)phenyl)-1,2-dimethyl-1H-benzo[d]imidazol-4-yl)piperidin-4-yl)methyl)oxetan-3-amine]	535
Cc1nc2c(N3CCC(CNC4CCOCC4)CC3)cc(-c3ccc(N4CCN(C(C)C)CC4)cc3)cc2n1C [Example 61, N-((1-(6-(4-(4-isopropylpiperazin-1-yl)phenyl)-1,2-dimethyl-1H-benzo[d]imidazol-4-yl)piperidin-4-yl)methyl)tetrahydro-2H-pyran-4-amine]	156
CC(C)N1CCN(c2ccc(-c3cc(NC4CCN(C5COC5)CC4)c4nc(-c5ccc(S(C)(=O)=O)cc5)n(C)c4c3)cc2)CC1 [Example 62, 6-(4-(4-isopropylpiperazin-1-yl)phenyl)-1-methyl-2-(4-(methylsulfonyl)phenyl)-N-(1-(oxetan-3-yl)piperidin-4-yl)-1H-benzo[d]imidazol-4-amine, 2 TFA]	111
CC(C)N1CCN(c2ccc(-c3cc(NCCN4CCOCC4)c4nc(-c5ccc(S(C)(=O)=O)cc5)n(C)c4c3)cc2)CC1 [Example 63, 6-(4-(4-isopropylpiperazin-1-yl)phenyl)-1-methyl-2-(4-(methylsulfonyl)phenyl)-N-(2-morpholinoethyl)-1H-benzo[d]imidazol-4-amine]	121
